≈ marks a conversion by molar mass, not a printed value. Like-named read-outs stand apart in the source and are kept apart here.
Legend:
[1] = calibration set on the IAM column, CHI index, Table S3 ref 19; cited from earlier work
physchem = format: physicochemical; conditions: for CHIC18: C18 column, pH 7.4, ACN gradient; for chromatographic logD: pH 7.4
Source text: For HPLC analyses Prominence-1 LC-2030C 3D HPLC system (Shimadzu, Japan) equipped with a DAD detector and controlled by LabSolution system (version 5.90 Shimadzu, Japan) was used. Two different chromatography columns packed with surface-modified silica were utilized in this study: • Octyldecylsilane (C18 Hypersil GOLD™; 50 mm × 4.6 mm; 5.0 µm; Thermo Scientific, USA) • Immobilized artificial membrane (IAM.PC.DD2; 10 × 4.6 mm × 10.0 µm; Regis Technologies; USA).
Both columns were equipped with guard precolumn containing the same silica-modified bed as the main column. All measurements were carried out using the protocol proposed by Valko[19] and co-workers and adopted in our laboratory. Briefly, methods developed by Valko offered the determination of Chromatographic Hydrophobicity Index (CHI) indices using one gradient elution experiment. Ammonium acetate buffer (50 mM, pH 7.4) and acetonitrile (ACN) were used as the mobile phase at a 1.5 mL/min flow rate. The gradient range varies depending on the column type: • For C18 starting from 2 to 98% ACN in 5.25 min. The maximum concentration of ACN was applied for 1.75 min. • For IAM starting from 0 to 85% ACN in 5.25 min. The maximum concentration of ACN was used for 0.5 min.
During the chromatographic separation, the temperature was stable at 30 °C. […] The injected volume was 10 μL, whereas the concentration of solutes was at level 100 μg/mL. All studied compounds were dissolved in DMSO. Each chromatographic experiments run in triplicate. […] Retention times for studied molecules and reference standards are collected in supplementary materials, Tables S1, S2 and S3, respectively.
Next, the CHIC18 values were converted into lipophilicity indices CHI log D using Eq. […]

[2] = system: M. tuberculosis SIR Ciprofloxacin susceptible 168/22; experiment: tuberculostatic activity, broth microdilution MIC (Alamar blue); format: cell-based, Mycobacterium tuberculosis; conditions: for MIC: Mycobacterium tuberculosis, read-out: Minimal inhibitory concentration; for activity in words: susceptible bacteria
M. tuberculosis H37Rv = experiment: as above; format: cell-based, Mycobacterium tuberculosis; conditions: for MIC: Mycobacterium tuberculosis, 504 h, M. tuberculosis H37Rv, read-out: Minimal inhibitory concentration; for activity in words: toward standard and susceptible strains
[3] = IAM-HPLC affinity to phospholipids (CHI protocol); format: physicochemical; conditions: for log kIAM: 0.045*CHIIAM+0.42; for CHIIAM: IAM column, pH 7.4, ACN gradient
[4] = calibration set on the C18 column, literature CHI index, Table S2 ref 19; cited from earlier work
[5] = 21 days 37 °C, Middlebrook 7H9 + OADC

CCCCCCC(=O)c1ccccc1 [Heptanophenone]
CHIIAM [1]: 45.7

CC1CCC(C(C)C)C(OCC(=O)N2CCN(c3cc4c(cc3F)c(=O)c(C(=O)O)cn4C3CC3)CC2)C1 (centres unmarked) [Compound 1]
CHIC18 (physchem): 112.24
chromatographic logD (physchem): 4.43
MIC [2]: 256 µg/mL (≈ 485 µM)
MIC (M. tuberculosis H37Rv; [5]): 32 µg/mL
activity in words (M. tuberculosis H37Rv): not active
log kIAM [3]: 2.47
CHIIAM [3]: 45.54

Cc1ccc(C(C)C)c(OC(=O)CCCOC(=O)c2cn(C3CC3)c3cc(N4CCN(CCCC(=O)Oc5cc(C)ccc5C(C)C)CC4)c(F)cc3c2=O)c1 [Compound 15]
CHIC18 (physchem): 135.98
chromatographic logD (physchem): 5.67
MIC [2]: 64 µg/mL (≈ 83.3 µM)
MIC (M. tuberculosis H37Rv; [5]): 64 µg/mL
activity in words (M. tuberculosis H37Rv): not active
log kIAM [3]: 2.47
CHIIAM [3]: 45.54

CCCCC(=O)c1ccccc1 [Valerophenone]
CHIC18 [4]: 96,2
CHIIAM [1]: 37.3

CC1CCC(C(C)C)C(OC(=O)CN2CCN(c3cc4c(cc3F)c(=O)c(C(=O)O)cn4C3CC3)CC2)C1 (centres unmarked) [Compound 2]
CHIC18 (physchem): 127.44
chromatographic logD (physchem): 5.22
MIC [2]: 2 µg/mL (≈ 3.79 µM)
MIC (M. tuberculosis H37Rv; [5]): 0.5 µg/mL
log kIAM [3]: 2.53
CHIIAM [3]: 46.88

CC1CCC(C(C)C)C(OC(=O)CCCN2CCN(c3cc4c(cc3F)c(=O)c(C(=O)O)cn4C3CC3)CC2)C1 (centres unmarked) [Compound 4]
CHIC18 (physchem): 132.45
chromatographic logD (physchem): 5.49
MIC [2]: 0.5 µg/mL (≈ 0.9 µM)
MIC (M. tuberculosis H37Rv; [5]): 0.5 µg/mL
log kIAM [3]: 2.82
CHIIAM [3]: 53.32

Cc1ccc(C(C)C)c(OC(=O)CCCN2CCN(c3cc4c(cc3F)c(=O)c(C(=O)O)cn4C3CC3)CC2)c1 [Compound 12]
CHIC18 (physchem): 115.60
chromatographic logD (physchem): 4.6
MIC [2]: 0.5 µg/mL (≈ 0.91 µM)
MIC (M. tuberculosis H37Rv; [5]): 0.5 µg/mL
log kIAM [3]: 2.48
CHIIAM [3]: 45.75

CC(=O)Nc1ccccc1 [Acetanilidine]
CHIIAM [1]: 11.5

CCCCCCCC(=O)c1ccccc1 [Octanophenone]
CHIIAM [1]: 49.4

CCC(=O)c1ccccc1 [Propiophenone]
CHIC18 [4]: 77,5
CHIIAM [1]: 25.9

NNC(=O)c1ccncc1 [Isoniazid, reference compound]
MIC [2]: 0.5 µg/mL (≈ 3.65 µM)
MIC (M. tuberculosis H37Rv; [5]): 0.0625 µg/mL

CC(=O)c1ccccc1 [Acetophenone]
CHIC18 [4]: 65,1
CHIIAM [1]: 17.2

CC[C@@H](CO)NCCN[C@@H](CC)CO [Ethambutol, reference compound]
MIC [2]: 0.5 µg/mL (≈ 2.45 µM)
MIC (M. tuberculosis H37Rv; [5]): 0.25 µg/mL

CC1CCC(C(C)C)C(OC(=O)CCCCN2CCN(c3cc4c(cc3F)c(=O)c(C(=O)O)cn4C3CC3)CC2)C1 (centres unmarked) [Compound 5]
CHIC18 (physchem): 134.85
chromatographic logD (physchem): 5.61
MIC [2]: 4 µg/mL (≈ 7.02 µM)
MIC (M. tuberculosis H37Rv; [5]): 4 µg/mL
log kIAM [3]: 2.62
CHIIAM [3]: 48.95

Cc1ccc(C(C)C)c(OC(=O)CN2CCN(c3cc4c(cc3F)c(=O)c(C(=O)O)cn4C3CC3)CC2)c1 [Compound 10]
CHIC18 (physchem): 111.26
chromatographic logD (physchem): 4.37
MIC [2]: 1 µg/mL (≈ 1.92 µM)
MIC (M. tuberculosis H37Rv; [5]): 1 µg/mL
CHIIAM [3]: 42.88

CCCCCC(=O)c1ccccc1 [Hexanophenone]
CHIIAM [1]: 41.8

Cn1c(=O)c2[nH]cnc2n(C)c1=O [Theophylline]
CHIC18 [4]: 18,4

c1ccc2[nH]cnc2c1 [Benzimidazole]
CHIC18 [4]: 34,3

CC(=O)Nc1ccc(O)cc1 [Paracetamol]
CHIIAM [1]: 2.9

CC1CCC(C(C)C)C(OC(=O)CCCCCOC(=O)c2cn(C3CC3)c3cc(N4CCN(CCCCCC(=O)OC5CC(C)CCC5C(C)C)CC4)c(F)cc3c2=O)C1 (centres unmarked) [Compound 8]
CHIC18 (physchem): 179.66
chromatographic logD (physchem): 7.97
MIC [2]: 4 µg/mL (≈ 4.78 µM)
MIC (M. tuberculosis H37Rv; [5]): 4 µg/mL
log kIAM [3]: 3.02
CHIIAM [3]: 57.85

Cc1ccc(C(C)C)c(OC(=O)CCCCCOC(=O)c2cn(C3CC3)c3cc(N4CCN(CCCCCC(=O)Oc5cc(C)ccc5C(C)C)CC4)c(F)cc3c2=O)c1 [Compound 16]
CHIC18 (physchem): 144.84
chromatographic logD (physchem): 6.14
MIC [2]: 4 µg/mL (≈ 4.85 µM)
MIC (M. tuberculosis H37Rv; [5]): 4 µg/mL
log kIAM [3]: 2.64
CHIIAM [3]: 49.33

Cc1ccc(C(C)C)c(OC(=O)CCN2CCN(c3cc4c(cc3F)c(=O)c(C(=O)O)cn4C3CC3)CC2)c1 [Compound 11]
CHIC18 (physchem): 113.95
chromatographic logD (physchem): 4.52
MIC [2]: 1 µg/mL (≈ 1.87 µM)
MIC (M. tuberculosis H37Rv; [5]): 1 µg/mL
log kIAM [3]: 2.42
CHIIAM [3]: 44.44

Cc1ccc(C(C)C)c(OC(=O)CCCCN2CCN(c3cc4c(cc3F)c(=O)c(C(=O)O)cn4C3CC3)CC2)c1 [Compound 13]
CHIC18 (physchem): 117.28
chromatographic logD (physchem): 4.69
MIC [2]: 2 µg/mL (≈ 3.55 µM)
MIC (M. tuberculosis H37Rv; [5]): 2 µg/mL
log kIAM [3]: 2.53
CHIIAM [3]: 46.96

Cc1ccc(C(C)C)c(OC(=O)CCCCCN2CCN(c3cc4c(cc3F)c(=O)c(C(=O)O)cn4C3CC3)CC2)c1 [Compound 14]
CHIC18 (physchem): 121.48
chromatographic logD (physchem): 4.91
MIC [2]: 0.5 µg/mL (≈ 0.866 µM)
MIC (M. tuberculosis H37Rv; [5]): 0.5 µg/mL
log kIAM [3]: 2.68
CHIIAM [3]: 50.29

[H]/N=C(/N)N[C@H]1[C@H](O)[C@@H](O)[C@H](O[C@@H]2O[C@@H](C)[C@](O)(C=O)[C@H]2O[C@@H]2O[C@@H](CO)[C@H](O)[C@@H](O)[C@@H]2NC)[C@@H](N/C(N)=N\[H])[C@@H]1O [Streptomycin, reference compound]
MIC [2]: 64 µg/mL (≈ 110 µM)
activity in words [2]: poor activity
MIC (M. tuberculosis H37Rv; [5]): 0.25 µg/mL

CC1CCC(C(C)C)C(OC(=O)CCCCOC(=O)c2cn(C3CC3)c3cc(N4CCN(CCCCC(=O)OC5CC(C)CCC5C(C)C)CC4)c(F)cc3c2=O)C1 (centres unmarked) [Compound 7]
CHIC18 (physchem): 170.54
chromatographic logD (physchem): 7.49
MIC [2]: 256 µg/mL (≈ 317 µM)
MIC (M. tuberculosis H37Rv; […]): 256 µg/mL (≈ 317 µM)
activity in words (M. tuberculosis H37Rv): not active
log kIAM [3]: 2.92
CHIIAM [3]: 55.54

CC1CCC(C(C)C)C(OC(=O)CCN2CCN(c3cc4c(cc3F)c(=O)c(C(=O)O)cn4C3CC3)CC2)C1 (centres unmarked) [Compound 3]
CHIC18 (physchem): 129.99
chromatographic logD (physchem): 5.36
MIC [2]: 2 µg/mL (≈ 3.69 µM)
MIC (M. tuberculosis H37Rv; [5]): 2 µg/mL
log kIAM [3]: 2.65
CHIIAM [3]: 49.56

CO[C@H]1/C=C/O[C@@]2(C)Oc3c(C)c(O)c4c(O)c(c(/C=N/N5CCN(C)CC5)c(O)c4c3C2=O)NC(=O)/C(C)=C\C=C\[C@H](C)[C@H](O)[C@@H](C)[C@@H](O)[C@@H](C)[C@H](OC(C)=O)[C@@H]1C [Rifampicin, reference compound]
MIC [2]: 64 µg/mL (≈ 77.8 µM)
activity in words [2]: poor activity
MIC (M. tuberculosis H37Rv; [5]): 0.5 µg/mL

Cc1ccc(C(C)C)c(OCC(=O)N2CCN(c3cc4c(cc3F)c(=O)c(C(=O)O)cn4C3CC3)CC2)c1 [Compound 9]
CHIC18 (physchem): 129.41
chromatographic logD (physchem): 5.33
MIC [2]: 256 µg/mL (≈ 491 µM)
MIC (M. tuberculosis H37Rv; [5]): 256 µg/mL
activity in words (M. tuberculosis H37Rv): not active
log kIAM [3]: 2.38
CHIIAM [3]: 43.58

Reference: article PMC10539350 (Scientific Reports, 2023)
